# Reference: PubChem BioAssay (NCI)
#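 Step 1: Grow cells in 96-well plates. Step 2: Expose to compound for 48 hours at 5 concentrations. Step 3: Interpolate endpoints linearly; if unreached, use highest concentration. At the GI50, growth is halved. TGI is the concentration that stops growth completely.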
# What was measured:
# Assay in all cases: NCI tumour cell line growth inhibition, 48 h
# [1] = system: SR leukemia
# [2] = system: BT-549 breast
# [3] = system: NCI-H23 lung
# [4] = system: MALME-3M melanoma
# [5] = system: HOP-62 NSCLC
# [6] = system: SK-OV-3 ovarian
# [7] = system: SF-295 CNS
# [8] = system: MCF7 breast
# [9] = system: COLO 205 colon
# [10] = system: MDA-MB-231 breast
Compound,GI50 [1] [µM],TGI [1] [µM],GI50 [2] [µM],TGI [2] [µM],GI50 [3] [µM],TGI [3] [µM],GI50 [4] [µM],TGI [4] [µM],GI50 [5] [µM],TGI [5] [µM],GI50 [6] [µM],TGI [6] [µM],GI50 [7] [µM],TGI [7] [µM],GI50 [8] [µM],TGI [8] [µM],GI50 [9] [µM],TGI [9] [µM],GI50 [10] [µM],TGI [10] [µM]
CCCc1cc(=O)n2c(C(=O)Nc3ccc(F)cc3)c(C(=O)Nc3ccc(F)cc3)sc2n1,31.3,88.1,> 160,> 160,> 160,> 160,36,91.3,2.29,33.2,41.7,> 160,> 160,> 160,54.8,> 160,160,> 160,4.8,23.8
COc1cc(C2C3=C(COC3=O)N(CCO)c3cc4c(cc32)OCCO4)cc(OC)c1OC (configuration not stated),0.166,,0.32,> 11.8,0.203,,> 50,> 50,0.465,> 50,0.224,> 14.5,0.15,4.66,0.192,> 50,0.15,0.409,0.185,2.72
Cc1ccc([N+](=O)[O-])c2c(NCCNC(=O)c3cc(C(=O)NCCNc4ccnc5c(C)ccc([N+](=O)[O-])c45)n(C)n3)ccnc12,,> 82,,> 100,,> 100,,> 73.2,,> 71.2,,> 100,,> 100,,> 21.5,,> 100,,> 84.8
O=C(/C=C/C=C/c1ccccc1)c1ccco1,1.86,11.2,17.2,40.7,15,30.4,12.6,28.6,22.2,45.8,28.8,84.6,13.2,34.6,1.24,21.6,17.9,31.7,22.7,57.1
Cc1ccc(-c2nc(/C=N/Nc3cc(C)nc4ccc(Cl)cc34)c(C)o2)cc1,0.339,1.39,1.72,3.27,2.17,4.48,1.94,3.67,1.88,3.58,1.78,3.21,1.8,3.31,1.63,3.2,1.76,3.57,1.81,3.48
CC/C(Cc1ccccc1)=C(\c1ccc(OCCN2CCCC2)cc1)c1ccc(OC(=O)NCc2ccccc2)cc1,1.57,4.07,1.79,3.47,3.43,13.7,1.68,3.19,2.07,3.75,11.6,24.6,1.7,3.14,0.0994,2.16,2.11,4.28,1.84,3.35
O=C(O)/C(Cc1ccnc2ccccc12)=N\O,,> 100,,> 100,,> 100,,> 100,,> 100,,> 100,,> 100,,> 100,,> 100,,> 100
O=C(Nc1ccccc1I(=O)=O)C1CCCCC1,> 100,> 100,> 100,> 100,> 100,> 100,> 100,> 100,,,> 100,> 100,> 100,> 100,> 100,> 100,> 100,> 100,> 100,> 100
CN(C)CCCn1c(=O)c2ccccc2c2cnc3[nH]ccc3c21,0.63,13.6,2.95,9.58,1.76,6.62,1.69,4.55,1.49,5.72,1.97,7.11,1.18,6.65,2.74,11.3,0.686,3.54,1.99,8.83
Nc1nc2c(C(=O)NCc3cccs3)nnn2c2cccc(Cl)c12,,> 100,,> 100,,> 100,,> 100,,> 100,,> 100,,> 100,,> 100,,> 100,,> 100
O=C1/C(=C/c2ccc(F)cc2)CN(C(=O)CCN2CCC(=NO)CC2)C/C1=C\c1ccc(F)cc1,0.197,> 100,1.58,3.21,1.92,4.47,1.86,4.89,2.34,6.02,5.22,11.5,2.06,4.72,0.768,4.59,1.94,5.5,1.37,3.54
CCOC(=O)C(Cc1ccc(N(CCCl)CCCl)cc1)NC(=O)C(Cc1ccccc1)NC=O (configuration not stated),,0.824,,0.756,,0.399,,0.191,,0.388,,0.634,,0.523,,0.502,,0.322,,0.344
Cc1cc(C)c(C#N)c(Sc2nc(C)c([N+](=O)[O-])c(C)c2C#N)n1,2.94,> 100,2.66,7.5,2.87,10.4,2.27,5.1,3.52,12.7,3.76,27.4,14.2,59.4,3.11,11.6,2.58,5.55,4.7,51
O=C(O)/C(Cc1cn[nH]n1)=N\O,,> 100,,> 100,,> 100,,> 100,,> 100,,> 100,,> 100,,> 100,,> 100,,> 100
CCCCC#Cc1c(I)n(C)c(=O)[nH]c1=O,0.895,2.09,1.94,4.55,2.14,4.43,1.94,3.55,16.9,31,20.3,34.6,10.6,22.7,9.6,25.4,1.93,3.58,2.06,4.27
CN=C1C=CC(=C(c2ccc(N(C)C)cc2)c2ccc(N(C)C)cc2)C=C1,0.206,0.551,0.265,1.28,0.224,1.02,0.406,1.95,0.0765,1.48,0.261,0.828,0.147,0.473,0.308,1.05,0.184,0.524,0.267,0.785
C#C[C@@]1(O)[C@@H](CO)O[C@@H](n2cc(I)c3c(N)ncnc32)[C@@H]1O,0.262,> 28.5,0.259,4.01,0.327,6.48,0.826,3.39,0.747,8.69,0.0343,0.729,0.432,3.77,< 0.0117,> 100,0.0874,0.706,0.185,> 100
C1CN(c2nnc(N3CCC3)nn2)C1,,> 100,,> 100,,79.7,,> 79.3,,> 100,,> 100,,69.6,,> 72.2,,> 92.4,,> 60.2
O=C(NC(=O)c1c(Cl)nc2sccn12)Nc1ccc(Cl)cc1,,> 100,,> 81.9,,88.1,,> 100,,43.3,,57.5,,70.2,,> 100,,> 100,,68.5
CSc1nc2nc3c(nc2c(=O)n1C)C(=O)c1ccccc1C3=O,0.332,> 100,0.159,0.305,0.142,0.422,0.0406,0.166,0.097,0.413,0.774,2.04,0.157,0.315,0.162,0.384,0.173,0.357,0.256,0.974
Cn1cc(C2=C(c3c[nH]c4ccccc34)C(=O)NC2=O)c2ccccc21,0.233,,0.314,> 7.28,0.218,> 25,0.143,> 25,0.585,> 25,1.08,> 25,0.201,,0.278,> 25,1.25,> 25,9.06,> 25
CNCCCNc1nc2ccccc2c2c(=O)c3cc(OC)ccc3sc12,3.55,> 100,12.8,26.8,1.7,3.19,1.67,3.15,1.76,3.76,,,1.82,3.34,1.69,3.32,2.06,4.4,1.52,2.98
C#Cc1cccc(Nc2nc(Cl)nc3cc(NC(=O)CCl)ccc23)c1,0.542,1.68,0.531,2.57,0.962,3.77,1,2.25,1.99,5.32,2.88,6.1,3.89,7.33,0.61,3.12,0.586,1.35,0.758,2.73
CC(C)N(Cc1ccc(CN(C(=O)CCl)C(C)C)cc1)C(=O)CCl,0.225,0.838,1.87,4.16,1.1,3.6,0.186,0.453,0.856,2.37,1.83,3.35,1.81,3.88,1.7,12.1,2.16,4.36,2.1,6.42
CS(=O)(=O)OCCCNCCCOS(C)(=O)=O,,2970,,4500,,5630,,4890,,6030,,7470,,4760,,5320,,4540,,6120
COc1ccccc1S(=O)(=O)Nc1ccc2c3c(cc(CCC(=O)NCCCCNc4cccc5c4C(=O)N(C4CCC(=O)NC4=O)C5=O)cc13)C(=O)N2C (configuration not stated),0.248,> 52.5,0.0874,1.56,17,> 100,0.0915,0.559,0.416,4.94,1.4,> 100,3.75,> 100,0.264,> 100,0.459,8.08,0.0351,0.295
O=C(NCC(F)(F)F)Nc1cccc(-c2cnc3cc(-c4ccc(F)cc4)ccn23)c1,0.314,11.1,1.31,> 61,1.65,20.8,0.541,46.2,1.51,> 86.3,1.96,> 54.2,0.737,6.97,0.586,18.5,0.531,> 26.7,2.65,> 49.4
O=C1CSC(c2ccccc2Cl)N1c1nnc(Cn2cnnc2)o1 (configuration not stated),3.51,19.1,6.31,32.5,16.4,> 100,6.84,30.6,17.6,44.6,14.9,75.7,3.38,19.5,1.63,13.2,10.5,23.2,12.1,29.9
O=[N+]([O-])c1ccc(Cl)c(CNc2ncnc3c2ncn3C2CCCCO2)c1 (configuration not stated),,64.4,,> 100,,> 100,,> 100,,> 100,,> 100,,> 100,,62,,> 100,,> 100
